Series [1] in a line: Metabolic stability in human liver microsomes with NADPH generating system. It counts as in vitro ADME. The note with it: for Substrate remaining (%) / Substrate loss (%) / microsomal CLint at 1 uM / half-life at 1 uM: 1 μM substrate; for microsomal CLint at 1 uM: read-out: Estimated in vitro intrinsic clearance (μL/min/mg protein); for half-life at 1 uM: read-out: Half-life estimated from single exponential decay; for Metabolic stability (in words): substrate in the presence of human liver microsomes. The method, then: The compound of Formula I (Compound 10) (1 uM) and ivacaftor (1 uM) were incubated with human liver microsomes (1 mg/mL protein/mL) in the presence of NADPH generating system (NADP (1 mM, ph7, glucose-6-phosphate (5 mM ph 7.4) and glucose-6-phosphate dehydrogenase (1 Unit/mL) for 0, 30, 60, and 120 minutes. Remaining substrate was measured by LC-MS/MS. Concentration of the test article was converted to percent drug remaining relative to the concentration of the test article at Time Zero.

The nature of series [2]: Solubility by nephelometry (turbidity) in HEPES-buffered physiological saline with 0.3% DMSO. It counts as physicochemical. The note with it: HB-PS with 0.3% DMSO; for solubility: HEPES-buffered physiological saline with 0.3% DMSO, aqueous buffer, kinetic from dmso stock, interpolated from solubility and turbidity plots, read-out: Solubility limit. The method, then: Solubility of the compound of Formula I (Compound 10) and ivacaftor was evaluated in HEPES-buffered physiological saline solution (HB-PS) with 0.3% DMSO. Solubility was measured as absence of turbidity using microparticualtes light-scattering technology in nephelometer and output expressed as nephelometry turbidity units (NTU). The HEPES buffer with 0.3% DMSO was the media used for the Ussing Chamber assays as described below. Concentrations of Compound 10 and ivacaftor tested in duplicate were 0, 0.01, 0.03, 0.1, 0.3, 1, 3, 10, 30 μM. The NIST traceable reference standard at 0, 0.2, 0.6 and 1 NTU were measured in duplicate as a reference standard for turbidity. The NTU values were plotted against the concentrations of Compound 10 and ivacaftor.

In another series the target is T1, F508del CFTR (Homo sapiens, UniProt P13569, DEL508-508).
T1 construct: human primary bronchial epithelia obtained from donors with the homozygous F508del CFTR missense mutation (CFhBE); endogenous in cells; host or cells: human primary bronchial epithelial cells (CFhBE) from donors homozygous for F508del
The series is described as follows: CFTR potentiator activity, Ussing chamber assay in primary bronchial epithelia (CFhBE). It counts as cell-based. The method, then:
Chloride ion channel potentiator activity of the compound of Formula I (Compound 10) and ivacaftor was evaluated in monlayer cultures of human primary bronchial epithelia obtained from donors with the homozygous F508del CFTR missense mutation (CFhBE) using Ussing assay technology.
The Ussing chamber assay is a well-established method for measurement of transport across epithelia of a wide variety of transport substrates (Clark, American Journal of Physiology.Gastrointestinal and liver Physiology, 2009, 296, G1151-1166). The Ussing half-chambers permit both apical and basolateral surfaces of an epithelium to be exposed to identical solutions, eliminating the chemical concentration gradient for movement of molecules across the epithelium. Under these symmetric solution conditions, the epithelium generates a transepithelial potential by activity of ion selective channels and active transport processes asymmetrically distributed in apical and basolateral membranes. The epithelium is maintained at a potential difference of 0 mV. The negative feedback circuit used for controlling the potential difference at 0 mV is called a voltage clamp circuit. Any current generated by the voltage clamp to maintain the transepithelial potential at 0 mV can arise only from biological active transport processes in the epithelial cells and the current (called short circuit current (ISC)) is a direct measure of these processes. Efflux of chloride to the apical surface is enabled by opening of apical CFTR channels, which allows water to move to the cellular surface and keep the tissue hydrated.

Setting [3] is: human liver microsomes, 120 min.

The values that follow come from patent US11236067B2, “Compound for treating cystic fibrosis” (ORPHOMED, INC., priority 2019, dated 2022).

Converted amounts (≈) assume the structure as drawn. “Also recorded” adds a separate entry of the source.

By half-life is commonly meant the time needed for the level to fall by half in the phase considered. The solubility is the concentration that dissolves in the medium under given conditions.

T1 sequence (P13569 with tags, fused parts or gaps DEL508-508): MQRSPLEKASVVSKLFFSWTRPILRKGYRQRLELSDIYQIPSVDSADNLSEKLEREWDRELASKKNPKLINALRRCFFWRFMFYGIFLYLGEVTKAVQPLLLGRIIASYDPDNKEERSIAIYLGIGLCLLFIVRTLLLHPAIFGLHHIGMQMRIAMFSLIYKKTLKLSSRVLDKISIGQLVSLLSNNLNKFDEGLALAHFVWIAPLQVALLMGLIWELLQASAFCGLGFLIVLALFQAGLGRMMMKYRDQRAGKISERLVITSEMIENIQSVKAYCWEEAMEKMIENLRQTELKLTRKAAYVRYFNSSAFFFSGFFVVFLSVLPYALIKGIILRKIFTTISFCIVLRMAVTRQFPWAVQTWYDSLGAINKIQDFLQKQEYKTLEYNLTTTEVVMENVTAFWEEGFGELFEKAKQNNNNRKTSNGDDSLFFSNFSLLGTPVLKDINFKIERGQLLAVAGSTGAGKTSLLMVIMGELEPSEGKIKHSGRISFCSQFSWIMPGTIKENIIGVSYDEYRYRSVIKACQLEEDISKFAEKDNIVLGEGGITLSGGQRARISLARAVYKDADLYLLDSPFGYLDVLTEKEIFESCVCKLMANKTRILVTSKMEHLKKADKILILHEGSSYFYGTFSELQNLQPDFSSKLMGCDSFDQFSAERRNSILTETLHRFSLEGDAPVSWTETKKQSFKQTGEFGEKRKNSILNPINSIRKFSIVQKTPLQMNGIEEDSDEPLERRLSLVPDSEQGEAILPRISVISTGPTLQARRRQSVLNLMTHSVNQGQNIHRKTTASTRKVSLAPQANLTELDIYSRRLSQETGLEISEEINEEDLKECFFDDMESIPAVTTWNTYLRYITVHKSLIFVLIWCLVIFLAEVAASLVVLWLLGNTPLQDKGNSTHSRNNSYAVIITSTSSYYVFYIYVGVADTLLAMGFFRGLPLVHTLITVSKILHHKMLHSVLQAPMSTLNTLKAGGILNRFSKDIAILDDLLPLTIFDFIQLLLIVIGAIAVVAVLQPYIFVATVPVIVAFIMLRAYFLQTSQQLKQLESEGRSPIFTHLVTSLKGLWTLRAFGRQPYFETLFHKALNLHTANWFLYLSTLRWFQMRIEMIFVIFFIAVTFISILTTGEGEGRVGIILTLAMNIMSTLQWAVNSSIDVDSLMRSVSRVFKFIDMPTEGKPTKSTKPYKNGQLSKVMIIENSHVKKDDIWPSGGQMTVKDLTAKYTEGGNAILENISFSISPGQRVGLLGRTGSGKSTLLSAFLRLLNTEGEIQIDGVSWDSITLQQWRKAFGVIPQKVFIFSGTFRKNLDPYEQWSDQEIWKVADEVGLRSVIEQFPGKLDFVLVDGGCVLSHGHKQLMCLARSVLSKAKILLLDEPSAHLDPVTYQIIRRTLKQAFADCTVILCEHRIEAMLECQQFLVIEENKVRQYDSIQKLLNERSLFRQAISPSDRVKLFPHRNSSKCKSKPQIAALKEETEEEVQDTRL

Turning to `CC(C)(C)c1cc(C(C)(C)C)c(OCCOc2cc(NC(=O)c3c[nH]c4ccccc4c3=O)c(C(C)(C)C)cc2C(C)(C)C)cc1NC(=O)c1c[nH]c2ccccc2c1=O` [Compound of Formula I, N,N′-((ethane-1,2-diylbis(oxy))bis(2,4-di-tert-butyl-5,1-phenylene))bis(4-oxo-1,4-dihydroquinoline-3-carboxamide)], in series [1] (human liver microsomes), the “Metabolism back to ivacaftor or ivacaftor metabolites (in words)” value is “not to substantially metabolize to ivacaftor, hydroxymethyl-ivacaftor or ivacaftor-carboxylate; also recorded: does not revert back to ivacaftor”; the microsomal CLint at 1 uM is < 5.78 µL/min/mg; the half-life at 1 uM was > 2 h. Moreover, the “Substrate remaining (%)” value in series [1] (human liver microsomes, 0 min) is 100%. Besides, in series [1] (human liver microsomes, 30 min), the “Substrate loss (%)” value is on record as “No loss” and the “Substrate remaining (%)” value is reported as 108%. In series [1] (human liver microsomes, 60 min), the “Substrate loss (%)” value was “No loss” and the “Substrate remaining (%)” value turned out to be 107%. For the same compound, in series [1] (setting [3]), the “Substrate loss (%)” value is recorded as “No loss” and the “Substrate remaining (%)” value was found to be 120%. Further, the “Metabolic stability (in words)” value in series [1] is “metabolically stable”. The “Metabolic stability (in words)” value in series [1] (listed as compound represented by Formula I) was “chemically and metabolically stable”. Moreover, in series [2], the “Solubility relative to ivacaftor (times less soluble)” value amounted to 57.4 times and the solubility was 0.137 µM. For the same compound, the “Potency relative to ivacaftor (times more potent)” value on F508del CFTR (based on solubility difference between the compound and ivacaftor) was “at least 15 times”. For the same compound, the “Potentiator response (in words)” value on F508del CFTR (homozygous F508del CFhBE monolayers, short circuit current, FIGS. 2A and 2B) was “potentiator response is similar to ivacaftor; also recorded: potentiated F508del CFTR”. Further, at F508del CFTR (homozygous F508del CFhBE, FIGS. 2A and 2B), the “Duration/stability of potentiator response (in words)” value is “appears to remain stable longer than ivacftor”.

As to `CC(C)(C)c1cc(C(C)(C)C)c(NC(=O)c2c[nH]c3ccccc3c2=O)cc1O` [ivacaftor, reference compound], the “Substrate remaining (%)” value in series [1] (human liver microsomes, 0 min) is reported as 100%; in series [1] (human liver microsomes, 30 min), 69.6%; in series [1] (human liver microsomes, 60 min), 50.9%; in series [1] (setting [3]), 30.5%. Moreover, the “Substrate loss (%)” value in series [1] (human liver microsomes, 30 min) came to 30.4%; in series [1] (human liver microsomes, 60 min), 49.1%; in series [1] (setting [3]), 69.5%. In addition, the microsomal CLint at 1 uM in series [1] (human liver microsomes) is 10.6 µL/min/mg. The half-life at 1 uM in series [1] (human liver microsomes) is 1.09 h. Also, the Fraction metabolized in series [1] (incubated with human liver microsomes (text summary of Table 1)) is ~70%. The solubility in series [2] was determined as 7.86 µM (≈ 3.09 µg/mL).
